From PMC13056558 (Nature Microbiology, 2026)

What was measured:
thiol peroxidase HpTpx [1] = target: T1, thiol peroxidase HpTpx (Helicobacter pylori, UniProt O25151); assay: In situ ABPP labelling ([…]), gel and LC-MS/MS, competed by Metro; type: cell-based; design: gene tpx; endogenous, H. pylori 26695 live cells
T1 sequence (O25151 2-166): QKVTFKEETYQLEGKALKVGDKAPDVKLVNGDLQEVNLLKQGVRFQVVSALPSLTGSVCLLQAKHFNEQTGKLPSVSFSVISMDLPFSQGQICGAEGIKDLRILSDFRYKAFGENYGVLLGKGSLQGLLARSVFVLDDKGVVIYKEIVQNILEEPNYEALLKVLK

[2] = target: T2, 60 kDa chaperonin HpGroEL (Helicobacter pylori, UniProt P42383); assay: as above; type: cell-based; design: gene groEL; endogenous, H. pylori 26695 live cells
T2 sequence (P42383 whole entry): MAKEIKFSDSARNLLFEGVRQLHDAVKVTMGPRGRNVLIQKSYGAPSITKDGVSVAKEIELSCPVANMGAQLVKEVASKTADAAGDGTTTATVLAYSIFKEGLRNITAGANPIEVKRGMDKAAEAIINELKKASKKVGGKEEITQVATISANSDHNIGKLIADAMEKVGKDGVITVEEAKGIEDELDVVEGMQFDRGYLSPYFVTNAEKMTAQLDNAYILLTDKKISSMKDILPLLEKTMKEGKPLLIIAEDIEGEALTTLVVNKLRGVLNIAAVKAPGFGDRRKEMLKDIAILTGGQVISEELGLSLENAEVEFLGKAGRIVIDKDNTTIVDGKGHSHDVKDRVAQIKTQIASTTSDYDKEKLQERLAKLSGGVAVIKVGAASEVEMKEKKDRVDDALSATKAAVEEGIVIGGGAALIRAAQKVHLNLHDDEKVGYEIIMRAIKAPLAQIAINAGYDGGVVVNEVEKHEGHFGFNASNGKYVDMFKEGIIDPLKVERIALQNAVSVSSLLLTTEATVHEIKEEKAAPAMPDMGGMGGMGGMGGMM

thiol peroxidase HpTpx [3] = target: T3, thiol peroxidase HpTpx (Helicobacter pylori, UniProt O25151, C94A); assay: X-ray co-crystal structure, […] Å (reduced amine form Metro*); type: binding
T3 construct: gene tpx

[4] = target: T2, 60 kDa chaperonin HpGroEL; assay: Intact protein MS and malachite green ATPase assay of modified enzyme; EC50 is from in situ competition with Metro-P3 in H. pylori; type: cell-based; design: gene groEL; recombinant HpGroEL, modified during anaerobic expression in E. coli
thiol peroxidase HpTpx [5] = target: T1, thiol peroxidase HpTpx; assay: Intact protein MS and peroxidase assay of modified enzyme; EC50 is from in situ competition with Metro-P3 in H. pylori; type: cell-based; design: gene tpx; recombinant HpTpx wild type, modified during anaerobic expression in E. coli
thiol peroxidase HpTpx [6] = target: T1, thiol peroxidase HpTpx; assay: Gel-based in situ competitive labelling against Metro-P3 (ABPP); type: cell-based; design: gene tpx; endogenous, H. pylori 26695 live cells
[7] = target: T2, 60 kDa chaperonin HpGroEL; assay: as above; type: cell-based; design: gene groEL; endogenous, H. pylori 26695 live cells

C#CCOCCn1c([N+](=O)[O-])cnc1C [Metro-P1]
In situ ABPP labelling (1 μM), gel and LC-MS/MS, competed by Metro (thiol peroxidase HpTpx [1]): 18-kDa HpTpx band was solely diminished in case of ether derivatives Metro-P1 and Metro-P3 upon Metro pre-incubation
In situ ABPP labelling (1 μM), gel and LC-MS/MS, competed by Metro [2]: a 60-kDa band decreased for all three probes

Cc1ncc([N+](=O)[O-])n1CCO [Metro, Metronidazole]
X-ray co-crystal structure, 1.75 Å (reduced amine form Metro*) (thiol peroxidase HpTpx [3]): forms an irreversible thioether bond with the CP residue
EC50 [4]: 24 µM
EC50 (thiol peroxidase HpTpx [5]): 250 µM

CCOCCn1c([N+](=O)[O-])cnc1C [MF-03]
EC50 (thiol peroxidase HpTpx [6]): 17 µM
EC50 [7]: 40 µM
